# From patent US20040235086A1, “Detection of cellular contaminants in samples of non-living material” (priority 2001, published 2004)
# Tests used:
# Hepatocyte cells = assay: Microcalorimetric detection of heat production on uncoupling of oxidative phosphorylation in hepatocytes; type: cell-based
# Protocol: Hepatocyte cells were grown on 37 degrees Celsius with 5% CO2, Rinsed with Versene, then loosened with EDTA-trypsine and washed with PBS. Concentration was 1,88. 10e7 cells/ml or about 28 000 cells in a well.
# The uncoupler CCCF was dissolved in DMSO to a stock concentration of 100 mM, the diluted to 10 mM again in DMSO, and a final working concentration of 400 μM was diluted in H2O.
# A sample of hepatocytes was introduced in the adjoining recipients (hereinafter referred to as top and bottom well) of a microcalorimeter. The thermopile, which is located between the two recipients allows the measurement of a minute temperature difference between the samples in each recipient by measuring a voltage difference. Sensitivity was determined to be 15 mV/K (10.7 V/W). The following procedure was used:
# adding of 1.5 μl of hepatocyte solution was added to the top and bottom well of the microcalorimeter
# 0.5 μl of a 100 μM solution of uncoupler was added to the bottom well, while the same volume of the buffer solution was added to the top well
# At its maximum (reached after 10 min), the voltage difference between the two wells was recorded. From this value, the temperature difference and the heat production difference could be determined.
# [1] = system: Escherichia coli bacteria
# Protocol: The presence of living cells, including bacterial cells, in a sample can be detected by addition of hydrogen peroxide which will be degraded by catalase activity present in the cells, which causes heat production.
# Escherichia coli bacteria were grown on 37° Celsius in Liquid Broth. Samples of bacteria are taken when growth is in the log fase and is estimated to be around 4.10e8 bacteria/ml, which corresponds to around 600 000 bacteria per well.
# A 30% (w/w) hydrogen peroxide solution from Sigma was used directly.
# Measurements were performed using a microcalorimeter. The top well was provided with 1.5 μl of the bacterial solution in LB, while the bottom well contained 1.5 μl LB only.
# When a steady baseline was obtained (10 min) 0.5 μl of the hydrogen peroxide solution was added to each of the wells.
Compound,"maximum voltage difference between the two wells (Hepatocyte cells; 0.5 μl of 100 μM uncoupler solution added to 1.5 μl hepatocyte solution (about 28 000 cells/well), maximum reached after 10 min, vs buffer well)","heat production difference per cell (Hepatocyte cells; hepatocytes, based on number of cells added to each well)","temperature difference (voltage difference divided by sensitivity of the microcalorimeter) (Hepatocyte cells; hepatocytes, uncoupler well vs buffer well, sensitivity 15 mV/K)",maximum temperature difference ([1]; 0.5 μl of 30% (w/w) hydrogen peroxide added to 1.5 μl E. coli in LB (around 600 000 bacteria per well) vs LB only),"total enthalpy change ([1]; calculated from Tmax=ΔH/2C, heat capacity 10 mJ/K after addition of hydrogen peroxide)"
"N#CC(C#N)=NNc1cccc(Cl)c1 [CCCF, carbonylcyanide-3-chlorophenylhydrazone]",800 μV,3 nW,50 mK,–,–
OO [hydrogen peroxide],–,–,–,400 mK,80 mJ
